From US11325920B2, “Antibacterial compounds, compositions thereof, and methods using same” (The Rockefeller University, priority 2018, dated 2022)
Values after ≈ are worked out from the molar mass of the structure shown. Where two headings read alike, the source gives them in different places.

Legend:
[1] = system: Listeria monocytogenes ATCC15313; test: MIC assay, Listeria monocytogenes ATCC15313
Experimental: (§1) Minimum Inhibitory Concentration (MIC) and Minimal Bactericidal Concentration (MBC) Assays. […] Specifically, overnight cultures in an appropriate broth (e.g., Luria Bertani, Mueller-Hinton II) were diluted to 5×10^5 cfu/mL and used to fill wells of a 96-well plate. […] The plates were incubated on a shaker (200 rpm) at 35-37° C. for 18-20 hours, and then the optical density was measured at 595 nm on a microplate reader.

[2] = system: Staphylococcus aureus ATCC BAA-1721; test: MIC assay, S. aureus ATCC BAA-1721
Experimental: as §1

[3] = system: Pseudomonas aeruginosa PAO1; test: MIC assay, Pseudomonas aeruginosa PAO1
Experimental: as §1

[4] = system: Staphylococcus epidermidis RP62A; test: MIC assay, Staphylococcus epidermidis RP62A
Experimental: as §1

[5] = system: Staphylococcus aureus USA200; test: MIC assay, S. aureus USA200
Experimental: as §1

[6] = system: Staphylococcus aureus USA100; test: MIC assay, S. aureus USA100
Experimental: as §1

[7] = system: Enterococcus faecium Com15; test: MIC assay, Enterococcus faecium Com15
Experimental: as §1

[8] = system: Staphylococcus aureus ATCC BAA-42; test: MIC assay, S. aureus ATCC BAA-42
Experimental: as §1

[9] = system: M. tuberculosis H37Rv; test: Antibiotic assay against Mycobacterium tuberculosis (IC90); type: cell-based; conditions: for MIC: read-out: IC90 (footnote a; column head MIC)
[10] = system: Staphylococcus aureus NCTC 8325 pT181; test: MIC assay, S. aureus NCTC 8325 pT181
Experimental: as §1

[11] = system: Staphylococcus aureus ATCC12600; test: MIC assay, wild type S. aureus ATCC 12600; type: cell-based
[12] = system: Staphylococcus aureus USA800; test: MIC assay, S. aureus USA800
Experimental: as §1

[13] = system: S. aureus ATCC 12600 D471Y mutant strain; test: microbe, parasite or virus in culture; conditions: Staphylococcus aureus, ATCC12600
[14] = system: Acinetobacter baumannii ATCC17978; test: MIC assay, Acinetobacter baumannii ATCC17978
Experimental: (§2) Minimum Inhibitory Concentration (MIC) and Minimal Bactericidal Concentration (MBC) Assays. […] Specifically, overnight cultures in an appropriate broth (e.g., Luria Bertani, Mueller-Hinton II) were diluted to 5×10^5 cfu/mL and used to fill wells of a 96-well plate. […] The plates were incubated on a shaker (200 rpm) at 35-37° C. for 18-20 hours, and then the optical density was measured at 595 nm on a microplate reader. Samples of each well without visible growth were diluted and spread on LB agar petri dishes. The petri dishes were incubated overnight at 37° C., and the colonies were counted.

[15] = system: S. aureus ATCC 12600 D471Y mutant strain
[16] = system: rifamycin resistant S. aureus strains carrying RNAP mutations; test: Activity against rifamycin resistant S. aureus strains carrying RNAP mutations; conditions: FIG. 6D
[17] = system: Proteus mirabilis ATCC29906; test: MIC assay, Proteus mirabilis ATCC29906
Experimental: as §2

[18] = system: Salmonella enterica IR715; test: MIC assay, Salmonella enterica IR715
Experimental: as §2

[19] = target: T1, S447L mutant DNA-dependent RNA polymerase from Mycobacterium smegmatis (Mycolicibacterium smegmatis, UniProt P60281, S447L); type: biochemical; conditions: S447L M. smegmatis RNAP mutant
T1 construct: made in house

[20] = Staphylococcus aureus, ATCCBAA1721
[21] = Staphylococcus aureus, ATCCBAA42
[22] = Mycobacterium tuberculosis H37Rv, Table 5
[23] = Staphylococcus aureus, NCTC8325
[24] = Mycobacterium tuberculosis, H37RV

CO[C@H]1/C=C/O[C@@]2(C)Oc3c(C)c(O)c4c(O)c(c(/C=N/N5CCN(C)CC5)c(O)c4c3C2=O)NC(=O)/C(C)=C\C=C\[C@H](C)[C@H](O)[C@@H](C)[C@@H](O)[C@@H](C)[C@H](OC(C)=O)[C@@H]1C [Rifampicin, rifampicin, reference compound]
MIC [1]: 0.031 µg/mL (≈ 0.0377 µM)
MIC [2, 20]: 0.0078 µg/mL (≈ 0.00948 µM)
MIC [3]: 32 µg/mL (≈ 38.9 µM)
MIC [4]: 0.016 µg/mL (≈ 0.0194 µM)
MIC [5]: 0.0078 µg/mL (≈ 0.00948 µM)
MIC [6]: 0.0078 µg/mL (≈ 0.00948 µM)
MIC ([7]; Enterococcus faecium, COM15): 4 µg/mL (≈ 4.86 µM)
MIC [8, 21]: 0.016 µg/mL (≈ 0.0194 µM)
MIC [9, 22]: 0.2 µg/mL (≈ 0.243 µM)
MIC [10, 23]: 0.031 µg/mL (≈ 0.0377 µM)
MIC ([11]; read-out: MIC): 0.023 µg/mL (≈ 0.0279 µM)
MIC [12]: 0.016 µg/mL (≈ 0.0194 µM)
MIC [13]: 5.6 µg/mL (≈ 6.8 µM)

CC(=O)OC1C(C)C(OC2CC3OCOC3C(C)O2)/C=C/OC2(C)CC(O)c3c(c(C)c(O)c4c3C(=O)C=C(NC(=O)/C(C)=C\C=C\C(C(C)OC(=O)C(C)(C)CC(=O)O)C(O)C(C)C(O)C1C)C4=O)O2 (stereo not drawn) [Kang V1, kanglemycin V1]
MIC [1]: 1 µg/mL (≈ 1 µM)
MIC [2, 20]: 0.063 µg/mL (≈ 0.0631 µM)
MIC [14]: > 64 µg/mL
MIC [3]: 64 µg/mL (≈ 64.1 µM)
MIC [4]: 0.031 µg/mL (≈ 0.0311 µM)
fold lower MIC than rifampicin [15]: ~80 fold
MIC [5]: 0.25 µg/mL (≈ 0.25 µM)
activity against rifamycin resistant S. aureus strains [16]: active
MIC [17]: > 64 µg/mL
MIC [6]: 0.13 µg/mL (≈ 0.13 µM)
MIC ([7]; Enterococcus faecium, COM15): 32 µg/mL (≈ 32.1 µM)
MIC [8, 21]: 0.13 µg/mL (≈ 0.13 µM)
MIC [9, 22]: 3.1 µg/mL (≈ 3.11 µM)
IC90 [9, 24]: 3.12 µM
MIC [10, 23]: 0.063 µg/mL (≈ 0.0631 µM)
MIC [18]: > 64 µg/mL
MIC [11]: 0.069 µg/mL (≈ 0.0691 µM)
MIC [12]: 0.063 µg/mL (≈ 0.0631 µM)
MIC [13]: 0.069 µg/mL (≈ 0.0691 µM)

CC(=O)OC1C(C)C(OC2CC3OCOC3C(C)O2)/C=C/OC2(C)OC3=C(C)C(=O)c4c(O)c(cc5c4C3=C2OCO5)NC(=O)/C(C)=C\C=C\C(C(C)OC(=O)C(C)(C)CC(=O)O)C(O)C(C)C(O)C1C (stereo not drawn) [Kang V2, kanglemycin V2]
MIC [1]: 1 µg/mL (≈ 1 µM)
MIC [2, 20]: 0.25 µg/mL (≈ 0.251 µM)
MIC [14]: > 64 µg/mL
MIC [3]: 64 µg/mL (≈ 64.3 µM)
MIC [4]: 0.25 µg/mL (≈ 0.251 µM)
MIC [5]: 2 µg/mL (≈ 2.01 µM)
activity against rifamycin resistant S. aureus strains [16]: active
MIC [17]: > 64 µg/mL
in vitro activity against RNAP (run-off transcription) [19]: highest potency
MIC [6]: 1 µg/mL (≈ 1 µM)
MIC ([7]; Enterococcus faecium, COM15): 64 µg/mL (≈ 64.3 µM)
MIC [8, 21]: 1 µg/mL (≈ 1 µM)
MIC [9, 22]: 1.6 µg/mL (≈ 1.61 µM)
IC90 [9, 24]: 1.56 µM
MIC [10, 23]: 0.25 µg/mL (≈ 0.251 µM)
MIC [18]: > 64 µg/mL
MIC [11]: 0.62 µg/mL (≈ 0.622 µM)
MIC [12]: 1 µg/mL (≈ 1 µM)

CC(=O)O[C@@H]1[C@@H](C)[C@@H](O)[C@@H](C)[C@@H](O)[C@@H]([C@@H](C)OC(=O)C(C)(C)CC(=O)O)/C=C/C=C(\C)C(=O)NC2=CC(=O)c3c(c(O)c(C)c4c3C(=O)[C@](C)(O/C=C/[C@H](O[C@@H]3C[C@@H]5OCO[C@@H]5[C@H](C)O3)[C@H]1C)O4)C2=O [Kang A, kanglemycin A, reference compound]
MIC [1]: 2.0 µg/mL (≈ 2.04 µM)
MIC ([2]; Staphylococcus aureus ATCC BAA-1721): 2.0 µg/mL (≈ 2.04 µM)
MIC [14]: >64 µg/mL
MIC [3]: 64 µg/mL (≈ 65.2 µM)
MIC [4]: 0.25 µg/mL (≈ 0.255 µM)
MIC [5]: 2.0 µg/mL (≈ 2.04 µM)
MIC [17]: >64 µg/mL
MIC [6]: 1.0 µg/mL (≈ 1.02 µM)
MIC ([7]; Enterococcus faecium Com15): 64 µg/mL (≈ 65.2 µM)
MIC ([8]; Staphylococcus aureus ATCC BAA-42): 1.0 µg/mL (≈ 1.02 µM)
IC90 ([9]; M. tuberculosis H37Rv, read-out: IC90): 12.5 µM
IC90 (footnote a; column head MIC) [9, 22]: 13 µg/mL (≈ 13.2 µM)
MIC ([10]; Staphylococcus aureus NCTC 8325 pT181): 0.25 µg/mL (≈ 0.255 µM)
MIC [18]: >64 µg/mL
MIC [11]: 0.62 µg/mL (≈ 0.631 µM)
MIC [12]: 0.5 µg/mL (≈ 0.509 µM)
